The values below come from US9102967B2, “PmST2 enzyme for chemoenzymatic synthesis of α-2-3-sialylglycolipids” (priority 2012, dated 2015).

For orientation: Km means the concentration of substrate that gives half-maximal velocity. By kcat is commonly meant the number of substrate molecules converted per active site and unit of time at saturation.

In assay [1] the target is T1, MBP-PmST2-His6 (Pasteurella multocida, UniProt Q9CNC4, M25T).
T1 construct: used to clone of the full-length MBP-PmST2-His6 fusion protein in pMa1-c4X vector; made in house; host or cells: E. coli BL21(DE3)
The format is biochemical. As to conditions: MnCl2/MgCl2 1, 5, 10 or 20 mM; EDTA or 2-ME 1 or 10 mM; acceptor LacβPro-triazole-C14. As for the experimental part: Reactions were carried out in duplicate at 37° C. for 15 min in a total volume of 15 μl in a Tris-HCl buffer (200 mM, pH 8.0) containing LacβPro-triazole-C14 (2 mM), CMP-Neu5Ac (8 mM), 0.3% Triton X-100, and the enzyme (2.4 μg μl^−1). For metal effects, various concentrations (1, 5, 10, or 20 mM) of MgCl2 or MnCl2 were added and ethylenediaminetetraacetic acid (EDTA as chelating agent was used at two concentrations (1 or 10 mM). A reducing reagent 2-mercaptoethanol (2-ME) was used at two concentrations (1 or 10 mM). Reaction without metal ions, EDTA, or 2-ME was used as a control. All reactions were stopped by adding 15 μl of pre-chilled 95% ethanol and the reaction mixtures were kept on ice. The samples were centrifuged at 13,000 rpm for 5 min before the supernatants were analyzed by CE as described above.

Assay [2] concerns the target T1, MBP-PmST2-His6. The assay can be described thus: Acceptor substrate specificity studies (CE analysis). Type of assay: biochemical. The settings on record: for % product formation: acceptor 2 mM, CMP-Neu5Ac 4 mM, 10 min, 37° C., pH 8.0, 0.4% Triton X-100; for % Relative: relative to LacβPro-triazole-C14 = 100. As for the experimental part:
Enzymatic Reactions. All reactions were carried out in duplicate for 10 min at 37° C. in a total volume of 10 μl in Tris-HCl (200 mM, pH 8.0) containing an acceptor substrate (2 mM), CMP-Neu5Ac (4 mM), 0.4% Triton X-100, and enzyme (3.6 μg μl^−1). Addition of 15 μl of cold 95% ethanol was used to terminate each reaction. All reactions were incubated on ice for 10 min and were then centrifuged for 5 min at 13,000 rpm. The supernatant was transferred to a new vial for CE analysis.

Assay [3] deals with T1, MBP-PmST2-His6. Type of assay: biochemical. As to conditions: for Km / kcat / Vmax: apparent, 37° C.; for Km: Tris-HCl pH 8.0, 0.3% Triton X-100, varied substrate, other fixed (LacβPro-triazole-C14 2.0 mM or CMP-Neu5Ac 4.0 mM); for kcat: pH 8.0; for Vmax: pH 8.0, enzyme 14 μM. As for the experimental part:
Reactions were carried out at 37° C. for […] in a total volume of 15 μl in Tris-HCl buffer (200 mM, pH 8.0) containing 2-mercaptoethanol (1 mM), 0.3% Triton X-100, enzyme (14 μM), with varied CMP-Neu5Ac concentrations (0.25, 0.5, 1.0, 2.0, 5.0, and 10.0 mM) and a fixed LacβPro-triazole-C14 (2.0 mM) concentration, or varied LacβPro-triazole-C14 concentrations (0.5, 1.0, 2.0, 5.0, 10.0, and 20.0 mM) or varied LacβPro2AA concentrations (0.5, 1.0, 2.0, 5.0, 10.0, and 25.0 mM) and a fixed CMP-Neu5Ac concentration (4.0 mM). HPLC assays were used for reactions with LacβPro2AA as the sialyltransferase acceptor and CE assays were used for reactions with LacβPro-triazole-C14 as the sialyltransferase acceptor. Apparent kinetic parameters were obtained by fitting the data (the average values of duplicate assay results) into the Michaelis-Menten equation using Grafit 5.0.

The test system of assay [4] is N. meningitidis (MC58 and 406Y) Lst. As to conditions: previous report; cited from earlier work.
Assay [5] addresses T2, PmST1 (Pasteurella multocida, UniProt Q15KI8). The settings on record: cited from earlier work.
In assay [6] the target is T1, MBP-PmST2-His6. Kind of assay: pH profile of α2-3-sialyltransferase reaction. The format is biochemical. As to conditions: acceptor 2 mM, 0.3% Triton X-100. As for the experimental part: Each reaction was carried out in duplicate at 37° C. for 15 min in a buffer (200 mM) with a total volume of 15 μl containing an acceptor (2 mM, LacβPro2AA or LacβPro-triazole-C14), CMP-Neu5Ac (8 mM), 0.3% Triton X-100, and the enzyme MBP-PmST2-His6 (2.4 μg μl^−1). Buffers used were: NaOAc-HOAc (pH 4.0-6.0), Tris-HCl (pH 7.0-9.0), and CHES (pH 10.0). Enzymatic reactions were terminated by adding 15 μl of pre-chilled 95% ethanol. All samples were kept on ice for 10 min and then centrifuged at 13,000 rpm for 5 min. Supernatants were analyzed by HPLC (for LacβPro2AA reaction) or CE (for LacβPro-triazole-C14 reaction) as described above for the time course studies.

Assay [7] concerns the target T1, MBP-PmST2-His6. The assay can be described thus: Time-course study of α-2,3-sialyltransferase activity. Type of assay: biochemical. The settings on record: acceptor 2 mM, CMP-Neu5Ac 8 mM, 37° C., pH 8.0. As for the experimental part:
(§1) Enzymatic reactions were performed in a total volume of 20 μl (when LacβPro2AA was used as an acceptor) or 40 μl (when LacβPro-triazole-C 14 was used as an acceptor) in a Tris-HCl buffer (200 mM, pH 8.0) containing an acceptor (2 mM of LacβPro2AA or LacβPro-triazole-C14), CMP-Neu5Ac (8 mM), 0.3% Triton X-100, and a sialyltransferase ([…] MBP-PmST2-His6 or PmST1) at 37° C. At different time points (0, 1, 5, 10, 15, 20, 30, and 60 min), 1.5 μl aliquots were taken from the LacβPro2AA reaction and pre-chilled 12% acetonitrile aqueous solution (148.5 μl) was added to each aliquot. Similarly, 3.5 μl aliquots were taken from the LacβPro-triazole-C14 reaction at different time points and pre-chilled 95% ethanol (7 μl) was added to each aliquot. All samples were kept on ice for 10 min and then centrifuged for 5 min at 13,000 rpm. Supernatants from LacβPro2AA reactions were analyzed by a Shimadzu LC-2010A HPLC system equipped with a membrane on-line degasser, a temperature control unit, and a fluorescence detector (the excitation wavelength was set at 315 nm and the emission wavelength was set at 400 nm) using a reverse phase Premier C18 column (250×4.6 mm I.D., 5 μm particle size, Shimadzu) protected with a C18 guard column cartridge. Mobile phase used was 12% acetonitrile in water. Supernatants from LacβPro-triazole-C14 reactions were analyzed by a Beckman P/ACE MDQ capillary electrophoresis (CE) system (60 cm×75 μm i.d.) equipped with a PDA detector (optimal absorption at 214 nm). The running buffer used was sodium borate buffer (50 mM, pH 10.2) containing β-cyclcodextrin (20 mM).

The target in assay [8] is T2, PmST1. Described as above. Type of assay: biochemical. As for the experimental part:
as §1

T2 sequence (Q15KI8 entry or part of it): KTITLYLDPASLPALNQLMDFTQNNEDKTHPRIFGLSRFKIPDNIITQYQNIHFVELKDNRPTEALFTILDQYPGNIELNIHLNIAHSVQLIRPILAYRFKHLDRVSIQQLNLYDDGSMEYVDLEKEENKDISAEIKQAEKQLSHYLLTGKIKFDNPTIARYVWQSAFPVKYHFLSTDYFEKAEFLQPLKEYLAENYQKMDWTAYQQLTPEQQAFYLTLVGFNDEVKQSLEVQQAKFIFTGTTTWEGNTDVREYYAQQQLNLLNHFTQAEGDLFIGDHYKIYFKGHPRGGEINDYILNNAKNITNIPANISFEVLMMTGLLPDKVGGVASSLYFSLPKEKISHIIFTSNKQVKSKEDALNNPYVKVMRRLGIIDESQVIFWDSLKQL

For the compound `OCCS` [2-mercaptoethanol, reference compound], the “effect on α2,3-sialyltransferase activity (in words)” value at MBP-PmST2-His6 [1] is recorded as “did not affect”.

Take `CCCCCCCCCCCCCCc1cn(CCCOC2OC(CO)C(O)C(OC3OC(CO)C(O)C(O)C3O)C2NC(C)=O)nn1` (stereo not shown) [Galβ1-3GlcNAcβPro-triazole-C14]: on MBP-PmST2-His6 [2], the “% product formation” value is given as under 4% and the “% Relative” value is listed as under 11%.

As for `CCCCCCCCCCCCCCc1cn(CCCO[C@H]2O[C@H](CO)[C@H](O)[C@H](O[C@@H]3O[C@H](CO)[C@H](O)[C@H](O)[C@H]3O)[C@H]2NC(C)=O)nn1` [Galβ1-3GalNAcαPro-triazole-C14], on MBP-PmST2-His6 [2], the “% product formation” value is given as under 2% and the “% Relative” value is listed as under 6%.

`CCCCCCCCCCCCCCc1cn(CCCOC2OC(CO)C(O)C(O)C2O)nn1` (stereo not shown) [GalβPro-triazole-C14]: at MBP-PmST2-His6 [2], the “% product formation” value is 9.2 ± 1.3% and the “% Relative” value is recorded as 25.5%.

lactosyl ceramide [reference compound]: the “acceptor substrate for PmST2 (in words)” value on MBP-PmST2-His6 [2] is “not an acceptor”.

Regarding “cytidine 5′-monophosphate N-acetylneuraminic acid [CMP-Neu5Ac, reference compound]”, on MBP-PmST2-His6 [3], the Michaelis constant (Km) is 1300 ± 100 µM, the turnover number (kcat) is 0.0883 ± 0.0067 s⁻¹ and the Vmax entry is on record as “(7.4 ± 0.5) × 10^−2 mM min^−1”.

Turning to `O=C(O)CN(CCN(CC(=O)O)CC(=O)O)CC(=O)O` [EDTA, ethylenediaminetetraacetic acid, reference compound], the “effect on α2,3-sialyltransferase activity (in words)” value at MBP-PmST2-His6 [1] was “did not affect the activity significantly”.

Consider Galβ1-3GlcNAcαPro-triazole-C14, for which, at MBP-PmST2-His6 [2], the “% product formation” value is under 2% and the “% Relative” value is reported as under 6%.

As to `[Cl-].[Cl-].[Mg+2]` [MgC12, MgCl2], the stimulation of activity in assay [4] was 2 fold. Besides, the “effect on α2,3-sialyltransferase activity (in words)” value at MBP-PmST2-His6 [1] is given as “did not affect the activity significantly”. Also, the “effect on sialyltransferase activity of PmST1 (in words)” value on PmST1 [5] is reported as “does not stimulate or change the sialyltransferase activity”.

For “Galβ1-4GlcβPro-triazole-C14 [LacβPro-triazole-C14]”, on MBP-PmST2-His6 [2], the “acceptor substrate for PmST2 (in words)” value is on record as “best acceptor substrate”, the “% product formation” value stood at 36.1 ± 1.5% and the “% Relative” value came to 100%. In addition, the “optimal pH range with this acceptor” value at MBP-PmST2-His6 [6] is on record as 5.0-8.0. Also, the “sialylation achieved in 1 hour” value at MBP-PmST2-His6 [7] was found to be 60%. Also, the “time at which the sialyltransferase reaction reached optimum” value at PmST1 [8] (acceptor 2 mM, CMP-Neu5Ac 8 mM, 37° C., pH 8.0) is recorded as 15 min. Moreover, at PmST1 [8] (at 15 min), the “product formation at optimum” value was “less than 5%”. Besides, on MBP-PmST2-His6 [3], the “fold difference in KM values (stronger binding) versus LacβPro2AA” value was found to be 7 fold, the Michaelis-Menten constant (Km) worked out at 4100 ± 300 µM, the turnover number (kcat) is 0.2 ± 0.017 s⁻¹ and the Vmax result was “(1.7 ± 0.1) × 10^−1 mM min^−1”. Further, at MBP-PmST2-His6 [3] (from differences in KM and kcat), the “fold higher catalytic activity versus LacβPro2AA as acceptor” value was found to be 10 fold.

As for “Galβ1-4GlcNAcβPro-triazole-C14 [LacNAcβPro-triazole-C14]”, at MBP-PmST2-His6 [2], the “% product formation” value amounted to 18.5 ± 2.7% and the “% Relative” value came out at 51.2%.

`[Cl][Mn][Cl]` [MnC12, MnCl2]: the stimulation of activity in assay [4] was 3 fold. The “effect on α2,3-sialyltransferase activity (in words)” value on MBP-PmST2-His6 [1] is recorded as “did not affect the activity significantly”. Further, on PmST1 [5], the “effect on sialyltransferase activity of PmST1 (in words)” value is “activity decreases”.
